# Laboratory results taken from article PMC3269340, “Pharmacokinetics of memantine in rats and mice” (PLoS Currents, 2012).
# Where two headings read alike, the source gives them in different places.
# Experiments:
# human PEPT1 = target: T1, human PEPT1 (Homo sapiens, UniProt P46059); assay: Direct uptake transporter assay, PEPT1; format: in vitro ADME; settings: for Accumulation in transporter transfected cells: PEPT1-transfected cells; for Accumulation in parental cells: parental CHO cells (PEPT1 line)
# T1 sequence (P46059 1-708): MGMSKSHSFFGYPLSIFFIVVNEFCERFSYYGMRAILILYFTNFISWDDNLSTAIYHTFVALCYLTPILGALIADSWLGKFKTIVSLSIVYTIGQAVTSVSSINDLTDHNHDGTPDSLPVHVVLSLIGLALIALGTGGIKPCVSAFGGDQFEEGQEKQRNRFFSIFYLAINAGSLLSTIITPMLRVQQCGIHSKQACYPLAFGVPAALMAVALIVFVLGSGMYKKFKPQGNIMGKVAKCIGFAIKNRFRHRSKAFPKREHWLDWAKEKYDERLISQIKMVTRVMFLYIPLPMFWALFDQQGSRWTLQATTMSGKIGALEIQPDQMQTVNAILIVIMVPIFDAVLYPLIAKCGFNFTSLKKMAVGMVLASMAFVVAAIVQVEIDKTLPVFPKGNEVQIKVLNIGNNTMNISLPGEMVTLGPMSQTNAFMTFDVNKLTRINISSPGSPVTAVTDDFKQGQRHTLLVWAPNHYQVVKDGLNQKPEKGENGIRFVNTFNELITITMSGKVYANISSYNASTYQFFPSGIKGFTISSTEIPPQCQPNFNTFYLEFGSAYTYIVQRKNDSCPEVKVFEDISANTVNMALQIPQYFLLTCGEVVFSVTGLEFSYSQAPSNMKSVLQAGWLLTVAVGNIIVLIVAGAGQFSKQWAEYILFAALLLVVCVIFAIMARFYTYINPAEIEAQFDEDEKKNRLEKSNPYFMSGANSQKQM
# Procedure: (§1) To determine whether memantine is a substrate of the human OATP2B1 (OATP-B), OCT1, OCT2, OAT3, PEPT1, PEPT2 uptake transporters.
# (§2) The potential for memantine to be a substrate of an uptake transporter was determined directly by comparing the uptake of memantine into cells expressing the selected uptake transporter with its uptake into control cells. Memantine was added to transporter-expressing and control cells at two concentrations (PEPT1 and PEPT2 100 and 300 µM, OCT1 and OCT2 50 and 100 µM, OATP2B1 100 and 300 µM), and incubated with cells for 2 and 20 min at 37±1°C (75 µL final incubation volume). The final concentrations of memantine were selected to be the IC50 of reporter substrate transport inhibition established in the indirect transporter assay and one order of magnitude lower. Incubations were carried out as described in the indirect uptake transporter assays. The concentration of memantine was determined by LC-MS/MS.
# [1] = Bidirectional Caco permeability; format: in vitro ADME; settings: human, Caco-2, pH 7.4
# Procedure: (§3) CacoReady ^TM 24-transwell plates with plated Caco cells were purchased from Advancell, and were prepared for the experiments following manufacturer’s instructions. Memantine and reference compounds (propranolol, digoxin and vinblatine) were added to either the apical or basolateral chambers of the transwell plate assembly at a concentration of 10 μM prepared in Hanks’ Balanced Salt Solution containing 25 mM HEPES (pH7.4). Lucifer Yellow (LY) was added to the donor buffer in all wells to assess viability of the cell layer. Since LY cannot freely permeate lipophilic barriers, results were rejected when a high degree of LY transport (>100nm/s) was observed. After a 1 h incubation at 37°C, aliquots were taken from both chambers and added to acetonitrile containing an analytical internal standard in a 96-well plate. Concentrations of compound in the samples were measured by (HPLC-MS/MS).
# (§4) Papp values were calculated from the relationship:
# (§5) Papp = ([compound]acceptor final × Va )/ (A × time ([compound]donor initial )
# (§6) The efflux ratio (Er) was calculated as
# (§7) Er = Papp (B to A) / Papp (A to B)
# Caco2 cells = assay: Bidirectional Caco permeability; format: in vitro ADME; settings: Caco2 cells
# Procedure: as §3, §4, §5, §6, §7
# [2] = Human pharmacokinetics (literature); format: in vivo
# human PEPT2 = target: T2, human PEPT2 (Homo sapiens, UniProt Q16348); assay: Direct uptake transporter assay, PEPT2; format: in vitro ADME; settings: for Accumulation in transporter transfected cells: PEPT2-transfected cells; for Accumulation in parental cells: parental CHO cells (PEPT2 line)
# T2 construct: expressed in transfected cells; host or cells: CHO cells
# T2 sequence (Q16348 1-729): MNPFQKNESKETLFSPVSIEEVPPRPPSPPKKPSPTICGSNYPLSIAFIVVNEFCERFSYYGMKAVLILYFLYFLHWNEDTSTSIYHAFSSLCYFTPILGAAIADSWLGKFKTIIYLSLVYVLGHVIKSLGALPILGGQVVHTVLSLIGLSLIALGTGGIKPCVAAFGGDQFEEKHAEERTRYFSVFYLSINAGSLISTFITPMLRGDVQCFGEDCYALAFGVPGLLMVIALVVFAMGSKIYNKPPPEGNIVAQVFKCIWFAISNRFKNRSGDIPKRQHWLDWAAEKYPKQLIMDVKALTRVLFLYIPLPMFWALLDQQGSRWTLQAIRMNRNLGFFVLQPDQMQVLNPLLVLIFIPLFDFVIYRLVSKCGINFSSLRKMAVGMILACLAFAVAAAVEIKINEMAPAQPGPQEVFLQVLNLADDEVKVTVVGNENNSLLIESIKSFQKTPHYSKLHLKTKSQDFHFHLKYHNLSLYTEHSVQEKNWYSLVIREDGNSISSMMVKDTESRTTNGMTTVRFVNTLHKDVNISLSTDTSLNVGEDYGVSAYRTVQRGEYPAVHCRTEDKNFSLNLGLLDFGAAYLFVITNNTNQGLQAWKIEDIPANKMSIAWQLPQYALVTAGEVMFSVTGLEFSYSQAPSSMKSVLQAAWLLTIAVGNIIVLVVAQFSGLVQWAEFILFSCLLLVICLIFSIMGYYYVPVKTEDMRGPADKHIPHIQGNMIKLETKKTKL
# Procedure: as §1, §2
# [3] = no preferential accumulation in transfected over parental cells
smiles,measurement,setting,value
CC12CC3CC(C)(C1)CC(N)(C3)C2 [memantine],Highest Fold Activation,"human PEPT1; PEPT1, 100µM, 20 min","1.1 (100µM, 20 min)"
same,Accumulation in transporter transfected cells,"human PEPT1; 2 min, 100 µM",1073 pmol/mg
same,Accumulation in transporter transfected cells,"human PEPT1; 2 min, 300 µM",2290 pmol/mg
same,Accumulation in transporter transfected cells,"human PEPT1; 20 min, 100 µM",1087 pmol/mg
same,Accumulation in transporter transfected cells,"human PEPT1; 20 min, 300 µM",1682 pmol/mg
same,substrate of PEPT1 uptake transporter,human PEPT1; [3],not a substrate
same,Accumulation in parental cells,"human PEPT1; 2 min, 100 µM",969 pmol/mg
same,Accumulation in parental cells,"human PEPT1; 2 min, 300 µM",2389 pmol/mg
same,Accumulation in parental cells,"human PEPT1; 20 min, 100 µM",981 pmol/mg
same,Accumulation in parental cells,"human PEPT1; 20 min, 300 µM",1614 pmol/mg
same,"Papp A→B at 1 h, 10 μM","[1]; 10 μM, pH7.4, 1 h, read-out: Caco Permeability AtoB",43.4 ×10⁻⁶ cm/s
same,"Papp B→A at 1 h, 10 μM","[1]; 10 μM, pH7.4, 1 h, read-out: Caco Permeability BtoA",47 ×10⁻⁶ cm/s
same,"efflux ratio at 1 h, 10 μM","[1]; Papp (B to A) / Papp (A to B), read-out: ER (efflux ratio)",~1
same,MDR1 (Pgp) substrate,Caco2 cells,not a MDR1 (Pgp) substrate
same,Contribution of active transport to clearance,[2],30-40%
same,renal clearance higher than human GFR of 125 mL/min,[2],approximately 30%
same,"total systemic clearance, times higher than GFR",[2],~1.4 fold
same,"total systemic clearance, times higher than GFR",[2]; listed as Memantine,~ 1.4 fold
same,clearance,"[2]; plasma, oral, 10 mg, estimated, read-out: Cl p (converted)",2.67 mL/min/kg
same,Highest Fold Activation,"human PEPT2; PEPT2, 100µM, 20 min","0.97 (100µM, 20 min)"
same,Accumulation in transporter transfected cells,"human PEPT2; 2 min, 100 µM",937 pmol/mg
same,Accumulation in transporter transfected cells,"human PEPT2; 2 min, 300 µM",1871 pmol/mg
same,Accumulation in transporter transfected cells,"human PEPT2; 20 min, 100 µM",897 pmol/mg
same,Accumulation in transporter transfected cells,"human PEPT2; 20 min, 300 µM",1759 pmol/mg
same,substrate of PEPT2 uptake transporter,human PEPT2; [3],not a substrate
same,Accumulation in parental cells,"human PEPT2; 2 min, 100 µM",965 pmol/mg
same,Accumulation in parental cells,"human PEPT2; 2 min, 300 µM",2011 pmol/mg
same,Accumulation in parental cells,"human PEPT2; 20 min, 100 µM",1219 pmol/mg
same,Accumulation in parental cells,"human PEPT2; 20 min, 300 µM",2056 pmol/mg
